# Values of other authors, collected in patent publication US10335495B2, “Biomolecule conjugates” (CELGENE CORPORATION, priority 2014, dated 2019).
# Conditions: versus methotrexate, daunorubicin, and vincristine
smiles,measurement,value
COc1cc2cc(c1Cl)N(C)C(=O)C[C@H](OC(=O)[C@H](C)N(C)C(C)=O)[C@]1(C)O[C@H]1[C@H](C)[C@@H]1C[C@@](O)(NC(=O)O1)[C@H](OC)/C=C/C=C(\C)C2 [Maytansine],more cytotoxic than conventional cancer chemotherapeutic agents,100- to 1000 fold
